Reference: patent US20170370929A1, “POSITIVE ALLOSTERIC MODULATORS OF THE DELTA-OPIOID RECEPTOR” (BRISTOL-MYERS SQUIBB COMPANY, priority 2014, published 2017)

Columns and labels:
[1] = target: δ receptor (Homo sapiens, UniProt P41143); experiment: PathHunter β-arrestin recruitment assay in CHO-OPRD1 cells; assay type: cell-based
[2] = target: μ receptor (Homo sapiens, UniProt P35372); experiment: PathHunter β-arrestin recruitment assay in CHO-OPRM1 cells; assay type: cell-based; conditions: PAM mode, up to the highest concentration tested (10 μM)
Chain of μ receptor (P35372 whole entry): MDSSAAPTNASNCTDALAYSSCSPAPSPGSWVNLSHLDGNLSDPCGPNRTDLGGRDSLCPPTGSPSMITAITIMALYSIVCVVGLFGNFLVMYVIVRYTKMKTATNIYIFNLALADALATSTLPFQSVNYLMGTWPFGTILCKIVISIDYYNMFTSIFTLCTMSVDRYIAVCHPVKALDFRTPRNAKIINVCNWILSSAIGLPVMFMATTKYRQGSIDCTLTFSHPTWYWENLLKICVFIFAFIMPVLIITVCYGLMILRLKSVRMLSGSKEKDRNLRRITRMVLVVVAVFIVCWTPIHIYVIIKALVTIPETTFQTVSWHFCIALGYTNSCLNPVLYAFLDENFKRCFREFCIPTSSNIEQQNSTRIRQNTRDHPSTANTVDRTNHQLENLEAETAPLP

Chain of δ receptor (P41143 whole entry): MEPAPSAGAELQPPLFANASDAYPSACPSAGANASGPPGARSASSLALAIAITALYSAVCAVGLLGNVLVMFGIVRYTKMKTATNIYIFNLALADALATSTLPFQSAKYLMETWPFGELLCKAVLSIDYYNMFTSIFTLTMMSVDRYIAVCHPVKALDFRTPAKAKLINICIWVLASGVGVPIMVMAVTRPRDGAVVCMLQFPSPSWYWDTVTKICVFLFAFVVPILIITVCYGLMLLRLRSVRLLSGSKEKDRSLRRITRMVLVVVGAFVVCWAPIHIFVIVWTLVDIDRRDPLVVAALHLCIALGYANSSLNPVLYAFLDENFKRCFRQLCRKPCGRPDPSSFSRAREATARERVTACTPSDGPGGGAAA

| EC50 ([1]; PAM mode, in the presence of an EC20 of leu-enkephalin, CHO-OPRD1 cells) | selectivity compared with PAM activity at the μ receptor ([1]; β-arrestin recruitment assay, δ versus μ receptor PAM activity) | PAM activity at the δ receptor (in words) ([1]; PAM mode, β-arrestin recruitment) | PAM activity at the μ receptor [2] | Structure (SMILES) |
| --- | --- | --- | --- | --- |
| 200 nM | 30 fold |  |  | CC1(C)CC(=O)C2=C(C1)OC1=C(C(=O)CC(C)(C)C1)C2c1ccc(OCc2ccccc2)cc1 [Analog 1] |
|  |  | equipotent PAM activity to 2 | no observable PAM activity | CC1(C)CC(=O)C2=C(C1)OC1=C(C(=O)CC(C)(C)C1)C2c1ccc(OCc2ccccc2Br)cc1 [Analog 10, 9-(4-((2-bromobenzyl)oxy)phenyl)-3,3,6,6-tetramethyl-3,4,5,6,7,9-hexahydro-1H-xanthene-1,8(2H)-dione] |
